Results on seven molecules are retold here after patent US9896445B2, “Heterocyclic inhibitors of ERK1 and ERK2 and their use in the treatment of cancer” (Asana Biosciences, LLC, priority 2015, dated 2018).

Each structure is given as a SMILES string.

Series [1] deals with T1, ERK1 (Homo sapiens, UniProt P27361).
T1 construct: purchased Jubilant Biosys
The series can be described thus: ERK1 HTRF (biochemical) assay. The note with it: HTRF. The protocol: ERK1 and ERK2 HTRF (Biochemical) Assays
These assays employed a homogeneous time resolved fluorescence (HTRF) technique. […] The plate was incubated at room temperature for 60 min with shaking. […] The IC50 values (half maximal inhibitory concentration values) were subsequently determined using a sigmoidal dose-response curve (variable slope) in GraphPad Prism® 5 software.
(TR-FRET usually uses a lanthanide donor and a delayed reading to cut background.)

Series [2] has as its target T2, ERK2 (Homo sapiens, UniProt P28482).
T2 construct: purchased Jubilant Biosys
The series can be described thus: ERK2 HTRF (biochemical) assay. The following applies: HTRF. Put shortly:
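Compounds were tested as half-log dilutions from 0.0005 to 10 uM in Tris pH 7.5/MgCl2 buffer, with a substrate mix of 1 uM biotin-MBP peptide and 24 uM ATP and an enzyme mix of 25 nM ERK2. Reaction ran 60 min at room temperature. Phospho-MBP was detected by HTRF (Eu-anti-phospho-MBP/SA-APC, 665/620 nm), and IC50 was fitted with a variable-slope sigmoidal curve.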

The subject of series [3] is human melanoma xenograft model (A375) harboring B-RAF V600E mutation. Briefly: A375 human melanoma xenograft model, tumor growth inhibition. It counts as in vivo, mice. On the procedure: (§1) In Vivo Studies in Tumor Xenograft Models
(§2) Tumor Cell Implantation and Randomization of Animals
(§3) Foxn1 nu/nu strain of female mice (obtained from Charles River Laboratories, USA), 8-10 weeks of age, body weight range 23-25 g, were used for the tumor xenograft efficacy studies. Human cancer cell lines (such as melanoma A375, colorectal HT29, pancreatic BxPC3, colorectal HCT116, and lung A549) were first grown in vitro, and then about five million (5×10^6) of these cells in 100 μL of serum free medium were mixed with an equal amount of matrigel, and the entire mixture was injected subcutaneously at the right flank region of mice. The tumors were measured with Vernier calipers periodically after the first week of injection. When the tumor volume reached 120-150 mm^3 (about 3-4 weeks after injection) the animals were randomized into different groups so that their tumor volume was approximately the same in all groups.
(§4) Determination of In Vivo Efficacy of Tumor Growth Inhibition
(§5) For PO dosing, the compounds were prepared in a formulation containing 0.5% Methyl cellulose and 0.01% Tween 80. For IV, SC, or IP dosing, the compounds were prepared in 6% solutol-ethanol (1:1), 6% DMSO and 88% saline. Animals were dosed with compounds prepared in specific formulations via PO, IP or SC route either QD or BID at the required doses. Tumors size and body weights were measured twice or thrice in a week. Tumors were harvested at the end of the study after euthanizing the animals according to approved protocols. […]
(§6) Changes in tumor volume (Δ volumes) for each treated (T) and control (C) group were calculated by subtracting the mean tumor volume on the first day of treatment (starting day) from the mean tumor volume on the specified observation day. […]
(§7) Percentage tumor growth inhibition was calculated as [100−% T/C]. Percentage body weight change was calculated as [(Body weight on specified observation day−Body weight on starting day)/Body weight on starting day]×100.
For orientation: A xenograft is tissue or cells of one species grown in another, often human tumour cells in immunodeficient mice.

The test system of series [4] is human colon cancer xenograft model (HCT116; harboring KRAS mutation). The series can be described thus: HCT116 human colon cancer xenograft model, tumor growth inhibition. It counts as in vivo, mice. The note with it: 50 mg/kg BID orally for 24 days. The protocol: as §1, §2
as §3, with “When the tumor volume reached 120-150 mm^3 (about 3-4 weeks after injection) the animals were randomized into different groups so that their tumor volume was approximately the same in all groups.” left out
(§8) For PO dosing, the compounds were prepared in a formulation containing 0.5% Methyl cellulose and 0.01% Tween 80. […] Tumors size and body weights were measured twice or thrice in a week. […]
as §6, §7

In series [5] the test system is HCT116 (colorectal carcinoma, K Ras G13D) cells. The series can be described thus: Cell proliferation (Alamar Blue) assay, HCT116. It counts as cell-based, human. The note with it: Homo sapiens, HCT-116, HCT116 cells. On the procedure: Cell Proliferation (Alamar Blue) Assay
HT-29 (colorectal carcinoma, B-RafV600E), HCT116 (colorectal carcinoma, K Ras G13D), A375 (melanoma, B-RafV600E) and SK-Mel2 (melanoma, NRAS Q61R) cells (obtained from ATCC, USA) were seeded (5000 cells/well) in 96-well tissue culture plate and incubated at 37° C./5% CO2 for 16-24 hours. The cells were then treated with compounds, at concentrations typically from 0.0005 to 10 uM prepared in 3-fold serial dilutions. The plates were then incubated for 72 h at 37° C./5% CO2 in a moist environment. Then Alamar Blue™ reagent (final concentration 1×) was added to each well and incubated for 1-3 h at 37° C./5% CO2. The plates were read on fluorescence reader at 540 nm excitation and 590 nm emission wavelengths. The IC50 values were subsequently determined using a sigmoidal dose-response curve (variable slope) using GraphPad Prism® 5 software.
Background: The colour change of resazurin is a common sign of viable cells or microbes.

In series [6] the test system is phospho-RSK (the downstream target of ERK1/2). Briefly: Pharmacodynamic assay, phospho-RSK in A375 tumor samples. It counts as in vivo, mice. The note with it: A375 tumor samples harvested at 1 h after dosing at 50 mg/kg PO, compared to vehicle control. The protocol: as §3, §5
Series [7] concerns human colon cancer xenograft model (HT-29) harboring B-RAF V600E mutation. Briefly: HT-29 human colon cancer xenograft model, tumor growth inhibition. It is filed as in vivo, mice. The note with it: HT-29 xenograft. The protocol:
as §1, §2
as §3, with “When the tumor volume reached 120-150 mm^3 (about 3-4 weeks after injection) the animals were randomized into different groups so that their tumor volume was approximately the same in all groups.” left out
as §8, §6, §7

The test system of series [8] is human pancreatic carcinoma xenograft model, BxPC3 (wild type KRAS). Briefly: BxPC3 human pancreatic carcinoma xenograft model, tumor growth inhibition. It counts as in vivo, mice. On the procedure:
as §1, §2
as §3, with “When the tumor volume reached 120-150 mm^3 (about 3-4 weeks after injection) the animals were randomized into different groups so that their tumor volume was approximately the same in all groups.” left out
as §8, §6, §7

For series [9], the system named is human lung carcinoma xenograft model (A549; harboring KRAS mutation). Briefly: A549 human lung carcinoma xenograft model, tumor growth inhibition. It counts as in vivo, mice. The following applies: 50 mg/kg BID orally for 20 days. The protocol:
as §1, §2, §3, §4, §5, §6, §7

[10] abbreviates: 50 mg/kg BID orally for 19 days.

T1 sequence (P27361 whole entry): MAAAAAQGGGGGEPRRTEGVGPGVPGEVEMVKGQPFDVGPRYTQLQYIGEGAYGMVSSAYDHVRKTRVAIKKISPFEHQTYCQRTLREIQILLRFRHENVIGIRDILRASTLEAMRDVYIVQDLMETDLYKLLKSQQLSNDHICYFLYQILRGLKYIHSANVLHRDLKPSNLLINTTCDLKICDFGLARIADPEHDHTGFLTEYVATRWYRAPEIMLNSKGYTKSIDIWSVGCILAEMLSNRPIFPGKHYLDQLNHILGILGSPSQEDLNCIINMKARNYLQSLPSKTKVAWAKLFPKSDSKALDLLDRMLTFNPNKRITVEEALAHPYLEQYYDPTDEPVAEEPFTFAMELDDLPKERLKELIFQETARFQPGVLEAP
T2 sequence (P28482 whole entry): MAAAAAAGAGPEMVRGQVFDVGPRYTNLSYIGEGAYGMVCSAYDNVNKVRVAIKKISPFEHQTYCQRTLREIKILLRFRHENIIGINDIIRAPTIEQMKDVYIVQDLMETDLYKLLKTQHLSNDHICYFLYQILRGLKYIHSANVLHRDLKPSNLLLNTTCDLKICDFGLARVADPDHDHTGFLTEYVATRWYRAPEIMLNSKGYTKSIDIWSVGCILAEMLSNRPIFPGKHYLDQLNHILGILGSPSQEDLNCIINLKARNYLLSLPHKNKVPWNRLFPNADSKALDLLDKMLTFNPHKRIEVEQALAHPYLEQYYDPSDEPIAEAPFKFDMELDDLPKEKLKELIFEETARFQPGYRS

As usually defined, the IC50 is the concentration needed to halve the response being measured. As to `Cc1cnc(NC2CCOCC2)nc1-n1cnc(C(=O)N[C@H](CN)c2cccc(Cl)c2)c1` (single isomer, unassigned) [Compound 225a], the values for the IC50 in [1] and in series [2] were under 50 nM and at most 50 nM, respectively. Further, the body weight loss entry in series [3] (setting [10]) and in series [4] was “no significant body weight loss” in each case.
On to `Cc1cnc(Nc2ccc(F)cc2)cc1-n1cnc(C(=O)NC(CN)c2ccccc2)c1` (single isomer, unassigned) [Compound 227, N-(2-amino-1-phenylethyl)-1-(2-((4-fluorophenyl)-amino)-5-methyl-pyridin-4-yl)-1H-imidazole-4-carboxamide], for which the IC50 in series [1] was under 50 nM; in [2], at most 50 nM; in series [5], over 2500 nM.
In the case of `Cc1cnc(NC2CCOCC2)nc1-n1cnc(C(=O)NC(CO)c2cccc(Cl)c2)c1` (centres unmarked) [Compound 201, N-(1-(3-chlorophenyl)-2-hydroxyethyl)-1-(5-methyl-2-((tetrahydro-2H-pyran-4-yl)amino)pyrimidin-4-yl)-1H-imidazole-4-carboxamide], the IC50 in series [1] was under 50 nM; in [2], at most 50 nM. Also, the “inhibition of phospho-RSK” value in [6] is on record as “about 66%”. Further, the body weight loss result in series [7] (50 mg/kg BID orally for 20 days) and in [8] (50 mg/kg BID orally for 25 days) was “no significant body weight loss” in each case. Moreover, the values for the tumor growth inhibition result in series [7] (dosed orally at 50 mg/kg BID for 20 days) and in series [8] (dosed orally at 50 mg/kg BID for 25 days) were “approximately 50%” and “about 63%”, respectively.
In general, melting point refers to the temperature, or range, at which the solid turns liquid. The molecule `Cc1cnc(NC2CCOCC2)nc1-n1cnc(C(=O)N[C@H](CO)c2cccc(Cl)c2)c1` [Compound 211, (S)-N-(1-(3-chlorophenyl)-2-hydroxyethyl)-1-(5-methyl-2-((tetrahydro-2H-pyran-4-yl)amino)pyrimidin-4-yl)-1H-imidazole-4-carboxamide] showed a melting point of 145 °C. In series [1], this molecule returned an IC50 of under 50 nM. In series [2], this molecule showed an IC50 of at most 50 nM. Further, the body weight loss entry in series [3] (50 mg/kg BID orally for 17 days) was “no significant body weight loss”. Further, the “inhibition of phospho-RSK” value in series [6] is about 84%.
Turning to `Cc1cnc(NC2CC(F)(F)C2)nc1-n1cnc(C(=O)N[C@H](CN)c2cccc(Cl)c2)c1` [Example 259, (S)-N-(2-amino-1-(3-chlorophenyl)-ethyl)-1-(2-((3,3-difluorocyclobutyl)amino)-5-methyl-pyrimidin-4-yl)-1H-imidazole-4-carboxamide], the body weight loss entry in [3] (setting [10]) and in series [4] was “no significant body weight loss” in each case.
With `Cc1cnc(NC2CCOCC2)nc1-n1cnc(C(=O)N[C@H](CN)c2cc(F)cc(Cl)c2)c1.O=S(=O)(O)c1ccccc1` [Example 302, (S)-N-(2-amino-1-(3-chloro-5-fluoro-phenyl)ethyl)-1-(5-methyl-2-((tetrahydro-2H-pyran-4-yl)amino)-pyrimidin-4-yl)-1H-imidazole-4-carboxamide benzenesulfonic acid salt], the body weight loss entry in series [9] is reported as “no significant body weight loss”.
In the case of `Cc1cnc(NC2CC(F)(F)C2)nc1-n1cnc(C(=O)N[C@H](CN)c2cccc(Cl)c2)c1.O=S(=O)(O)c1ccccc1` [Example 304, (S)-N-(2-amino-1-(3-chlorophenyl)-ethyl)-1-(2-((3,3-difluorocyclobutyl)amino)-5-methyl-pyrimidin-4-yl)-1H-imidazole-4-carboxamide benzenesulfonic acid salt], the body weight loss result in series [9] was “no significant body weight loss”.
